Measurements taken from patent US20230312561A1, “SOLID FORMS OF (Z)-METHYL 3-(((4-(N-METHYL-2-(4-METHYLPIPERAZIN-1-YL)ACETAMIDO)PHENYL)AMINO)(PHENYL)METHYLENE)-2-OXO-2,3-DIHYDRO-1H-PYRROLO[2,3-B]PYRIDINE-6-CARBOXYLATE AND SALTS THEREOF” (Angion Biomedica Corp., priority 2020, published 2023).

Tests used:
[1] = Drying studies of Compound 1 Hydrochloride (XRPD, TGA); type: physicochemical
Method: Compound 1 Hydrochloride Form A was then subjected to drying under various conditions.
Drying studies of Compound 1 Hydrochloride Form A (Type 1 Lot) were performed.
Variability in the drying profiles of different lots of Compound 1 Hydrochloride were noted, particularly with regards to the transition between Form A and Form C. The variable behavior appeared to depend upon the nature of the input Form A batch (e.g., how it was generated and then conditioned, if at all, prior to drying, and/or if excess hydrochloric acid was present).
Concentrated HCl (154 μL, 1 eqiuv) was added which clarified the suspension to a deep orange solution. The mixture was equilibrated for 30 minutes before cooling gradually to room temperature. A thin yellow suspension resulted. The solvent volume was reduced by 50% which thickened the suspension. The suspension was matured overnight, following which the solid was filtered to isolate the solids. The solid was air dried for ˜30 minutes giving a yellow solid (damp mass: 1.24 g; pH measured at 5.0). The XRPD pattern of the damp solid corresponded with Compound 1 Hydrochloride Form H. Analysis of the damp solid by DSC and TGA indicated a water content of 8.2%, which was fairly labile up ˜75° C.
Compound 1 Hydrochloride Form H was then subjected to a drying study under various conditions.
The solids were further subjected to prolonged drying.

[2] = Dynamic Vapor Sorption (DVS) analysis with XRPD after equilibration; type: physicochemical; settings: for moisture/water content on initial equilibration at 50% RH (DVS): beginning of analysis; for reversibility of water uptake (DVS): as relative humidity decreased
Method: Sorption isotherms were obtained using a Hiden Isochema moisture sorption analyzer (model IGAsorp), controlled by IGAsorp Systems Software V6.50.48. The sample was maintained at a constant temperature (25° C.) by the instrument controls. The humidity was controlled by mixing streams of dry and wet nitrogen, with a total flow of 250 mL·min^−1. The instrument was verified for relative humidity content by measuring three calibrated Rotronic salt solutions (10%, 50%, 88%). The weight change of the sample was monitored as a function of humidity by a microbalance (accuracy+/−0.005 mg). A defined amount of sample was placed in a tared mesh stainless steel basket under ambient conditions. A full experimental cycle typically consisted of three scans (sorption, desorption and sorption) at a constant temperature (25° C.) and 10% RH intervals over a 0-90% range (60 minutes for each humidity level). […]
This water content decreased as relative humidity decreased in the first desorption cycle.
The solid absorbed 3.39% water over the humidity range. […] The profile was similar to that of Form C in Example 7.2.

[3] = Solid state stability under humid conditions (40° C./75% RH and 25° C./60% RH, two weeks); type: physicochemical
Method: Stability of Compound 1 Hydrochloride Forms A, B, C, and D was evaluated under humid conditions. Samples of Forms A, B, C, and D were stored at 40° C./75% RH and 25° C./60% RH for a period of two weeks (loosely capped glass vials with approx. 200 mg solid). Solids were then re-analyzed using methods described herein. A summary of the results is provided in Table 12 (after storage at 25° C./60% RH) and Table 13 (after storage at 40° C./75% RH).

[4] = Form stability on standing on bench or at 40° C./75% RH (XRPD); type: physicochemical
Method: Two samples of the solid were stored under glass with loose fitting lids on a bench and at 40° C./75% RH for a period of 5 days and re-analyzed by XRPD.
In an additional experiment, a sample of Form F was left to stand on a bench in a loosened vial for 48 hours.

[5] = Aqueous solubility of salt forms (25° C., 1, 4, 24 h); settings: deionized water; for XRPD: isolated solids
Method: Aqueous solubility of certain salt forms was assessed. Each solid (100 mg) was charged into a crystallization tube. Deionized water (1 mL) was added to each tube to give a suspension. The mixtures were equilibrated at 25° C. for 24 hours with sampling after 1 and 4 hours' equilibration. Solids were isolated and XRPD analysis obtained.

[6] = Dry in vacuo at 25° C., T = 4 h
[7] = Dry in vacuo at 25° C., T = 24 h
[8] = Dry in vacuo at 25° C., T = 48 h
[9] = Dry in vacuo at 25° C., T = 120 h
[10] = Dry in vacuo at 45° C., T = 4 h
[11] = Dry in vacuo at 45° C., T = 24 h
[12] = Dry in vacuo at 45° C., T = 120 h
[13] = Dry in vacuo at 70° C., T = 4 h
[14] = Dry in vacuo at 70° C., T = 24 h
[15] = Dry in vacuo at 70° C., T = 120 h
[16] = Form C prepared from Form A, Type 1 Lot
[17] = Form C prepared from Form A, Type 2 Lot
[18] = under glass with loose fitting lid, 5 days
[19] = Dry in vacuo at 25° C., T = 96 h
[20] = Dry in vacuo at 45° C., T = 96 h
[21] = Dry in vacuo at 70° C., T = 96 h

COC(=O)c1ccc2c(c1)NC(=O)/C2=C(\Nc1ccc(N(C)C(=O)CN2CCN(C)CC2)cc1)c1ccccc1.Cl [Compound 1 Hydrochloride Form A (Type 2 Lot)]
TGA (%) [1, 6]: 9.96% | TGA (%) [1, 7]: 7.09% | XRPD [1, 7]: Form A | TGA (%) [1, 8]: 6.61% | XRPD [1, 8]: Form A | TGA (%) [1, 9]: 3.45% | TGA (%) [1, 10]: 9.89% | TGA (%) [1, 11]: 6.93% | TGA (%) ([1]; Dry in vacuo at 45° C., T = 48 h): 6.63% | TGA (%) [1, 12]: 2.27% | TGA (%) [1, 13]: 8.93% | TGA (%) [1, 14]: 6.49% | TGA (%) ([1]; Dry in vacuo at 70° C., T = 48 h): 6.68% | TGA (%) [1, 15]: 2.17% | TGA (%) ([1]; T = 0, before drying): 14.83% | level of hydration after extended drying ([1]; summary of drying studies, Table 10): reduced to 2-3% | XRPD analysis following equilibration at 0% RH ([2]; 0% RH): mixture of Form A and Form C | moisture/water content on initial equilibration at 50% RH (DVS) [2]: 6.39% | XRPD analysis following equilibration at 90% RH ([2]; 90% RH): predominantly Form A | uptake of water following initial equilibration at 50% RH during first desorption cycle (DVS) ([2]; first desorption cycle): −7% | water absorbed over the humidity range, first sorption cycle (DVS) ([2]; first sorption cycle): 8.66% | XRPD After Storage ([3]; 25° C./60% RH): Form A/C | XRPD After Storage ([3]; 40° C./75% RH): amorphous

COC(=O)c1ccc2c(c1)NC(=O)/C2=C(\Nc1ccc(N(C)C(=O)CN2CCN(C)CC2)cc1)c1ccccc1.Cl [Compound 1 Hydrochloride Form B]
XRPD analysis following equilibration at 0% RH ([2]; 0% RH): Form F | moisture/water content on initial equilibration at 50% RH (DVS) [2]: 4.2% | XRPD analysis following equilibration at 90% RH ([2]; 90% RH): Form H | level of water reached in initial sorption step after 70% RH (DVS) ([2]; above 70% RH): 17.3% | reversibility of water uptake (DVS) [2]: reversible | loss of water on the initial desorption step (DVS) ([2]; initial desorption step): ~1.5% | water content after the second desorption step (DVS) ([2]; second desorption step): 1.1% | TGA After Storage: further loss above/post 200° C. ([3]; 25° C./60% RH): 1.41% post 200 °C | TGA After Storage: weight reduction to 60° C. ([3]; 25° C./60% RH): Weight reduction of 1.69% to 60 °C | XRPD After Storage ([3]; 25° C./60% RH): Form B | TGA After Storage: further loss above/post 200° C. ([3]; 40° C./75% RH): followed by further loss of 1.4% | TGA After Storage: weight reduction to 60° C. ([3]; 40° C./75% RH): Weight reduction of 1.0% to 60 °C | XRPD After Storage ([3]; 40° C./75% RH): Form H

COC(=O)c1ccc2c(c1)NC(=O)/C2=C(\Nc1ccc(N(C)C(=O)CN2CCN(C)CC2)cc1)c1ccccc1.Cl [Compound 1 Hydrochloride Form C]
form after equilibration in water (damp solid, XRPD) ([1]; equilibrated in water for 48 hours): readily converted to Form A | XRPD analysis following equilibration at 0% RH ([2]; 0% RH): remained Form C | XRPD analysis following equilibration at 90% RH ([2]; 90% RH): Form A | water absorbed above 70% RH (DVS) [2, 16]: 8.38% | water absorbed up to 70% RH, initial sorption step (DVS) [2, 16]: 1.44% | water content reached over the humidity range on second sorption cycle (DVS) [2, 16]: 10% | XRPD analysis following equilibration at 0% RH [2, 17]: remained Form C | XRPD analysis following equilibration at 90% RH [2, 17]: remained Form C | water absorbed over the humidity range (DVS) [2, 17]: 3.39% | water absorbed up to 80% RH (DVS) [2, 17]: 1.55% | reversibility of water uptake (DVS) [2]: reversible | TGA After Storage: further loss above/post 200° C. ([3]; 25° C./60% RH): 0.98% post 200 °C | XRPD After Storage ([3]; 25° C./60% RH): Form C | TGA After Storage: further loss above/post 200° C. ([3]; 40° C./75% RH): 1.0% post 200 °C | XRPD After Storage ([3]; 40° C./75% RH): Form C | XRPD after storage at 40° C./75% RH [4, 18]: no change from Form C | XRPD after storage on a bench [4, 18]: no change from Form C

COC(=O)c1ccc2c(c1)NC(=O)/C2=C(\Nc1ccc(N(C)C(=O)CN2CCN(C)CC2)cc1)c1ccccc1.Cl [Compound 1 Hydrochloride Form D]
TGA After Storage: further loss above/post 200° C. ([3]; 25° C./60% RH): 1.51% post 200 °C | XRPD After Storage ([3]; 25° C./60% RH): Form D | TGA After Storage: further loss above/post 200° C. ([3]; 40° C./75% RH): 1.68% post 200 °C | XRPD After Storage ([3]; 40° C./75% RH): Form D

COC(=O)c1ccc2c(c1)NC(=O)C2=C(Nc1ccc(N(C)C(=O)CN2CCN(C)CC2)cc1)c1ccccc1.Cl [Compound 1 Hydrochloride Form F]
behaviour on prolonged drying ([1]; all drying temperatures (25, 45, 70° C.)): robust toward further changes | form after standing on a bench in a loosened vial (XRPD and TGA) ([4]; 48 hours): fully converted into Form H

COC(=O)c1ccc2c(c1)NC(=O)/C2=C(\Nc1ccc(N(C)C(=O)CN2CCN(C)CC2)cc1)c1ccccc1.Cl [Compound 1 Hydrochloride Form H]
TGA (%) [1, 6]: 0% | XRPD [1, 6]: Form F | XRPD [1, 7]: Form F | TGA (%) [1, 19]: 0% | XRPD [1, 19]: Form F | XRPD [1, 9]: Form F | TGA (%) [1, 10]: 0% | XRPD [1, 10]: Form F | XRPD [1, 11]: Form F | TGA (%) [1, 20]: 0% | XRPD [1, 20]: Form F | XRPD [1, 12]: Form F | TGA (%) [1, 13]: 0% | XRPD [1, 13]: Form F | XRPD [1, 14]: Form F | TGA (%) [1, 21]: 0% | XRPD [1, 21]: Form F | XRPD [1, 15]: Form F | TGA (%) ([1]; T = 0, before drying): 8.24% | XRPD ([1]; T = 0, before drying): Form H

COC(=O)c1ccc2c(c1)NC(=O)/C2=C(\Nc1ccc(N(C)C(=O)CN2CCN(C)CC2)cc1)c1ccccc1.Cl [HCl (Form A, Type 1 Lot)]
Solubility ([5]; t = 1 h): 70.37 mg/mL | pH ([5]; t = 1 h): 3.34 | Solubility ([5]; t = 4 h): 50.54 mg/mL | Solubility ([5]; t = 24 h): 52.88 mg/mL | pH ([5]; t = 24 h): 3.28

COC(=O)c1ccc2c(c1)NC(=O)/C2=C(\Nc1ccc(N(C)C(=O)CN2CCN(C)CC2)cc1)c1ccccc1.Cl [HCl (Form A, Type 2 Lot)]
Solubility ([5]; t = 1 h): 46.11 mg/mL | pH ([5]; t = 1 h): 5.22 | XRPD ([5]; t = 1 h): Form A | Solubility ([5]; t = 4 h): 43.78 mg/mL | XRPD ([5]; t = 4 h): Form A | Solubility ([5]; t = 24 h): 40.58 mg/mL | pH ([5]; t = 24 h): 5.25 | XRPD ([5]; t = 24 h): Form A

Maleate
Solubility ([5]; t = 1 h): 12.50 mg/mL | pH ([5]; t = 1 h): 6.35 | Solubility ([5]; t = 4 h): 12.39 mg/mL | Solubility ([5]; t = 24 h): 9.45 mg/mL | pH ([5]; t = 24 h): 6.40

Tosylate
Solubility ([5]; t = 1 h): 2.07 mg/mL | pH ([5]; t = 1 h): 6.46 | Solubility ([5]; t = 4 h): 2.02 mg/mL | Solubility ([5]; t = 24 h): 2.39 mg/mL | pH ([5]; t = 24 h): 6.66
